# From patent US20180243421A1, “IMMUNOSTIMULATING AGENT” (AJINOMOTO CO., INC., priority 2015, published 2018)
# System: anti-OVA-specific IgE antibody
# Conditions: mouse, in vivo
# In short: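 Female BALB/c mice (8-week-old, N=6) were immunized dorsal-subcutaneously with OVA (5 or 10 μg) alone or with adjuvants (Alum, Addavax™, CpG 5 μg, MPL 5 μg, or test lipid 0.256 μmol in 5% αCD saline), boosted one week later. Serum anti-OVA IgE was measured by capture ELISA with HRP-labeled OVA, read at OD 450 nm against a standard curve.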
Compound,allergy inducing activity as compared to Addavax,anti-OVA-specific IgE antibody production as compared to the OVA single administration group,allergy inducing activity as compared to aluminum hydroxide gel adjuvant,allergy inducing activity as compared to aluminum hydroxide gel adjuvant and Addavax
"CCCCCCCCCCCCCCCCCCCCCC(=O)N[C@@H](CCC(=O)O)C(=O)N(CC)CC [SZ106, N^2-docosanoyl-N^1,N^1-diethyl-L-glutamic acid 1-amide]",low allergy inducing activity,a significant increase in the anti-OVA-specific IgE antibody production was not observed,–,–
"CCCCCCCCCCCCCCCC(=O)N[C@@H](CC(C)C)C(=O)OCCCCCC [SZ97, N-hexadecanoyl-L-leucine hexyl ester]",low allergy inducing activity,a significant increase in the anti-OVA-specific IgE antibody production was not observed,–,–
"CCCCCCCCCCCCCCCC(=O)NC(=N)NCCCCN [SZ62, N-hexadecanoylagmatine]",–,–,lower allergy inducing activity,lower allergy inducing activity
"CCCCCCCCCCCCCCCC(=O)N[C@@H](CCCNC(=N)N)C(=O)OCCCCCC.Cl [SZ99, N^2-hexadecanoyl-L-arginine hexyl ester hydrochloride salt]",low allergy inducing activity,a significant increase in the anti-OVA-specific IgE antibody production was not observed,–,–
"CCCCCCCCCCCCCCCCCCC(CCCCCCCCCCCCCCCCCC)C(=O)N[C@@H](CC(C)C)C(=O)OC [SZ86, N-(2-octadecyleicosanoyl)-L-leucine methyl ester]",low allergy inducing activity,a significant increase in the anti-OVA-specific IgE antibody production was not observed,–,–
"CCCCCCCCCCCCCCCC(=O)N[C@@H](CC(C)C)C(=O)N(CC)CC [SZ92, N^2-hexadecanoyl-N^1,N^1-diethyl-L-leucinamide]",low allergy inducing activity,a significant increase in the anti-OVA-specific IgE antibody production was not observed,–,–
"CCCCCCCCCCCCCCCCCCCCCC(=O)NC(=N)NCCCCN.Cl [SZ108, N-docosanoylagmatine hydrochloride salt]",low allergy inducing activity,a significant increase in the anti-OVA-specific IgE antibody production was not observed,–,–
